{
  "source": "patent US20030092754A1",
  "about": "“External preparation for skin diseases containing nitroimidazole” (priority 1999, published 2003)",
  "origin": "cited, not measured here",
  "key": {"granuloma formation": {"test_system": "granuloma formation", "conditions": "mice, oral administration"}, "[1]": {"test_system": "swelling of the ears induced by dinitrofluorobenzene", "conditions": "sensitized mice, intraperitoneal administration"}, "anti-TBA antibody titer": {"test_system": "anti-TBA antibody titer", "conditions": "rabbits, intraperitoneal administration"}, "delayed immune reaction": {"test_system": "delayed immune reaction", "conditions": "intraperitoneal administration"}},
  "data": [
    {"smiles": "Cc1ncc([N+](=O)[O-])n1CCO", "note": "[metronidazole, 2-(2-methyl-5-nitroimidazol-1-yl)ethanol]", "values": [
      {"measurement": "anti-Trichomonas activity", "setting": "Trichomonas", "value": "potent anti-Trichomonas activity"},
      {"measurement": "antimicrobial activity against Entamoeba histolytica", "setting": "Entamoeba histolytica", "value": "strong antimicrobial activity"},
      {"measurement": "formation of granuloma by eggs of Schistosoma mansoni", "setting": "granuloma formation", "value": "inhibited"},
      {"measurement": "swelling of the ears induced by dinitrofluorobenzene", "setting": "[1]", "value": "inhibit swelling of the ears"},
      {"measurement": "increases in anti-TBA antibody titer to TBA vaccine", "setting": "anti-TBA antibody titer", "value": "significantly inhibits"},
      {"measurement": "delayed immune reaction to intravenous injection of ovine erythrocytes", "setting": "delayed immune reaction", "value": "inhibits a delayed immune reaction"},
      {"measurement": "action on leukocyte migration", "setting": "leukocyte migration", "value": "inhibitory action on leukocyte migration"}
    ]},
    {"smiles": "CCS(=O)(=O)CCn1c([N+](=O)[O-])cnc1C", "note": "[tinidazole, 1-(2-ethylsulfonylethyl)-2-methyl-5-nitroimidazole]", "values": [
      {"measurement": "anti-Trichomonas activity", "setting": "Trichomonas", "value": "primarily has anti-Trichomonas activity"},
      {"measurement": "delayed immune reaction to intravenous injection of ovine erythrocytes", "setting": "delayed immune reaction", "value": "tends to inhibit delayed immune reaction"},
      {"measurement": "action on leukocyte migration", "setting": "leukocyte migration", "value": "clearly exhibits inhibitory action of leukocyte migration"}
    ]}
  ]
}
